The record followed here is US20230009626A1 (ICHNOS SCIENCES S.A., priority 2018, published 2023).

Where a name gives a salt, the structure may show the parent alone.

What is called inhibition is the relative decrease from the control value, in per cent. As a reminder, the IC50 is the midpoint of a concentration-inhibition curve. High values mean lower potency, low ones higher potency.

The test has as its target HPK1 (MAP4K1) (Homo sapiens, UniProt Q92918). The test can be described thus: FRET Assay for HPK1 (MAP4K1): one step binding assay, displacement of labeled tracer. As to conditions: for inhibition at 1 µM: 1 μM compound; for inhibition at 1 µM / inhibition at 10 µM: FRET ratio 665/620, percent of control; for IC50: dose response curve, nonlinear regression; for inhibition at 10 µM: 10 μM compound. An excerpt:
FRET Assay for HPK1 (MAP4K1):
This is a one step binding assay based on the binding and displacement of the labeled tracer, where compound addition is followed by addition of the anti-GST tagged europium (Eu) as the donor and Alexa Fluor-labeled tracer as the acceptor. Simultaneous binding of both the tracer and GST-antibody to the kinase domain of HPK1 results in a high degree of FRET (fluorescence resonance energy transfer) from the anti-GST tagged europium (Eu) fluorophore to the Alexa Fluor® 647 fluorophore on the kinase tracer and this signal is reduced in presence of the inhibitor that can be measured.
Test compounds or reference compounds such as Sunitinib (Sigma) were dissolved in dimethylsulfoxide (DMSO) to prepare 10.0 mM stock solutions and diluted to the desired concentration. The final concentration of DMSO in the reaction was 3% (v/v). The assay mixture was prepared by mixing 4 nM of the Eu-Anti-GST Antibody and 10 nM MAP4K-1 enzyme in the Kinase buffer containing 50mM HEPES (pH 7.5), 10 mM MgCl2, 1 mM EGTA, 0.01% Brij-35 with or without the desired concentration of the compound. The reaction was incubated on ice for 15 mins. The pre-incubation step was followed by addition of the 20 nM Kinase Tracer 222 into the reaction mixture. After shaking for 5 min the reaction was further incubated for 1 hour at room temperature and this was kept at 4° C. and read on ARTEMIS reader as per the kit instructions (Thermo). […] The activity was calculated as percent of control reaction. IC50 values were calculated from dose response curve by nonlinear regression analysis using GraphPad Prism software.
Percentage inhibition at concentrations of 1.0 μM and 10.0 μM are given in the table along with IC50 (nM) details for selected examples.

HPK1 (MAP4K1), sequence (Q92918 whole entry): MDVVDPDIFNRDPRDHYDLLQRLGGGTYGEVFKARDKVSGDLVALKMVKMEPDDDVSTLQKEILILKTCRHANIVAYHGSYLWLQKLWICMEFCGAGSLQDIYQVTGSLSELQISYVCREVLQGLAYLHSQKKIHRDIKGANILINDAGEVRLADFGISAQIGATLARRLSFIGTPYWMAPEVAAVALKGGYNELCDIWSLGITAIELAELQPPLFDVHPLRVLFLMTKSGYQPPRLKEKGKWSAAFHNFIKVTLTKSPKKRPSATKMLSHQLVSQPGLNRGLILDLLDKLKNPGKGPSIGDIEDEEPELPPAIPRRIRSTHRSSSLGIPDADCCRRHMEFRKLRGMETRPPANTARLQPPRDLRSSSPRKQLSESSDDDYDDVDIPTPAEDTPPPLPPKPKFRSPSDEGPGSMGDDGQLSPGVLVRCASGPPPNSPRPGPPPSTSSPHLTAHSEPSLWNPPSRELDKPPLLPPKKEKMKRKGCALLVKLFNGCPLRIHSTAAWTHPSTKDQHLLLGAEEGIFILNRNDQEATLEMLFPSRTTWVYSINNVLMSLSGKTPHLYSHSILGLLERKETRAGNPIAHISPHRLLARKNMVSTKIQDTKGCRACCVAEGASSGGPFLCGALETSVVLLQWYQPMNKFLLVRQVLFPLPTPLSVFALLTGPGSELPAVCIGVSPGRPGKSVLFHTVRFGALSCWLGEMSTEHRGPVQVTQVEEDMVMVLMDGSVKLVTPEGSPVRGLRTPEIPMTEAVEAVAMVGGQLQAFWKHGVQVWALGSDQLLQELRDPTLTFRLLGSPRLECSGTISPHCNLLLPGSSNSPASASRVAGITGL

Take `C/C(Nc1ccn(C(C)C#N)n1)=C1/C(=O)Nc2cnc(-c3cnccc3C)cc21` (stereo in doubt) [Example 116]: the inhibition at 1 µM was determined as 75.9% and the IC50 was under 50 nM.

For `CN/C(=C1\C(=O)Nc2ccc(-c3c(F)cccc3OC)cc21)c1ccccc1` [Example 1, 5-(2-fluoro-6-methoxyphenyl)-3-((methylamino)(phenyl)methylene)indolin-2-one], the inhibition at 1 µM was 69.8%, the inhibition at 10 µM was 84% and the IC50 was in the range of 100 to 500 nM.

As for `COc1cccc(F)c1-c1ccc2c(c1)/C(=C(\C)Nc1ccc(N3CCN(C)CC3)cc1)C(=O)N2` [Example 2, (Z)-5-(2-Fluoro-6-methoxyphenyl)-3-(1-((4-(4-methylpiperazin-1-yl)phenyl)amino)ethylidene)indolin-2-one], the inhibition at 1 µM came to 88.6%, the inhibition at 10 µM stood at 82.5% and the IC50 was under 50 nM.

Turning to `COc1cccc(F)c1-c1ccc2c(c1)/C(=C(\C)Nc1ccccc1)C(=O)N2` [Example 3, (Z)-5-(2-Fluoro-6-methoxyphenyl)-3-(1-(phenylamino)ethylidene)indolin-2-one], the inhibition at 1 µM was determined as 62.5% and the IC50 was in the range of 100 to 500 nM.

In the case of `COc1cccc(F)c1-c1ccc2c(c1)/C(=C(\C)Nc1ccc(N3CCN(C4COC4)CC3)nc1)C(=O)N2` [Example 4, (Z)-5-(2-Fluoro-6-methoxyphenyl)-3-(1-((6-(4-(oxetan-3-yl)piperazin-1-yl)pyridin-3-yl)amino)ethylidene)indolin-2-one], the inhibition at 1 µM is 90.1%, the inhibition at 10 µM amounted to 91% and the IC50 is under 50 nM.

For `C/C(Nc1ccc(N2CCN(C3COC3)CC2)nc1)=C1/C(=O)Nc2ccc(F)cc21` [Example 5, (Z)-5-Fluoro-3-(1-((6-(4-(oxetan-3-yl)piperazin-1-yl)pyridin-3-yl)amino)ethylidene)indolin-2-one], the inhibition at 1 µM worked out at 76.1%, the inhibition at 10 µM worked out at 85.5% and the IC50 fell in the range of 100 to 500 nM.

Consider `C/C(Nc1ccc(N2CCN(C)CC2)cc1)=C1/C(=O)Nc2ccc(F)cc21` [Example 6, (Z)-5-Fluoro-3-(1-((4-(4-methylpiperazin-1-yl)phenyl)amino)ethylidene)indolin-2-one], for which the inhibition at 1 µM is 85.5%, the inhibition at 10 µM was determined as 87.3% and the IC50 is under 50 nM.

As for `COc1cccc(F)c1-c1ccc2c(c1)/C(=C(\C)Nc1ccc(N(C)C(=O)CN3CCN(C)CC3)cc1)C(=O)N2` [Example 7, (Z)-N-(4-((1-(5-(2-Fluoro-6-methoxyphenyl)-2-oxoindolin-3-ylidene)ethyl)amino)phenyl)-N-methyl-2-(4-methylpiperazin-1-yl)acetamide], the inhibition at 1 µM stood at 82.4%, the inhibition at 10 µM is 87.1% and the IC50 was under 50 nM.

On to `COc1cccc(F)c1-c1ccc2c(c1)/C(=C(\C)Nc1ccc(N3CCNCC3)cc1)C(=O)N2` [Example 8, (Z)-5-(2-Fluoro-6-methoxyphenyl)-3-(1-((4-(piperazin-1-yl)phenyl)amino)ethylidene)indolin-2-one], for which the inhibition at 1 µM worked out at 84.8%, the inhibition at 10 µM is 83.8% and the IC50 was under 50 nM.

For the compound `CC/C(Nc1ccc(N2CCN(C)CC2)cc1)=C1/C(=O)Nc2ccc(-c3c(F)cccc3OC)cc21` [Example 9, (Z)-5-(2-Fluoro-6-methoxyphenyl)-3-(1-((4-(4-methylpiperazin-1-yl)phenyl)amino)propylidene)indolin-2-one], the inhibition at 1 µM was 84.9%, the inhibition at 10 µM came out at 84.4% and the IC50 was under 50 nM.

Consider `COc1cccc(F)c1-c1ccc2c(c1)/C(=C(\C)Nc1cnn(C)c1)C(=O)N2` [Example 10, (Z)-5-(2-Fluoro-6-methoxyphenyl)-3-(1-((1-methyl-1H-pyrazol-4-yl)amino)ethylidene)indolin-2-one], for which the inhibition at 1 µM was found to be 82.6%, the inhibition at 10 µM amounted to 88.2% and the IC50 was under 50 nM.

Regarding `COc1cccc(F)c1-c1ccc2c(c1)/C(=C(\C)Nc1ccc(N3CCN(C)CC3)cc1C)C(=O)N2` [Example 11, (Z)-5-(2-Fluoro-6-methoxyphenyl)-3-(1-((2-methyl-4-(4-methylpiperazin-1-yl)phenyl)amino)ethylidene)indolin-2-one], the inhibition at 1 µM was determined as 73.2%, the inhibition at 10 µM turned out to be 84.4% and the IC50 was 100 to 500 nM.

For the compound `COc1cc2c(cc1N/C(C)=C1\C(=O)Nc3ccc(-c4c(F)cccc4OC)cc31)CNCC2` [Example 12, (Z)-5-(2-Fluoro-6-methoxyphenyl)-3-(1-((6-methoxy-1,2,3,4-tetrahydroisoquinolin-7-yl)amino)ethylidene)indolin-2-one. PTSA salt], the inhibition at 1 µM amounted to 48%, the inhibition at 10 µM turned out to be 55.8% and the IC50 is over 500 nM.

Regarding `COc1cccc(F)c1-c1ccc2c(c1)/C(=C(\C)Nc1ccc(N3CCOCC3)cc1)C(=O)N2` [Example 13, (Z)-5-(2-Fluoro-6-methoxyphenyl)-3-(1-((4-morpholinophenyl)amino)ethylidene)indolin-2-one], the inhibition at 1 µM turned out to be 73.3% and the IC50 was 50 to 100 nM.

Consider `COc1cccc(F)c1-c1cc2c(cn1)NC(=O)/C2=C(/C)Nc1ccc(N2CCN(C)CC2)cc1` [Example 14, (Z)-5-(2-fluoro-6-methoxyphenyl)-3-(1-((4-(4-methylpiperazin-1-yl)phenyl)amino)ethylidene)-1H-pyrrolo[2,3-c]pyridin-2(3H)-one], for which the inhibition at 1 µM was 86.3%, the inhibition at 10 µM stood at 88.3% and the IC50 was under 50 nM.

On to `COc1cccc(F)c1-c1ccc2c(c1)/C(=C(/Nc1cnn(C)c1)c1ccccc1)C(=O)N2` [Example 15, (Z)-5-(2-Fluoro-6-methoxyphenyl)-3-(((1-methyl-1H-pyrazol-4-yl)amino)(phenyl)methylene)indolin-2-one], for which the inhibition at 1 µM is 85.2%, the inhibition at 10 µM amounted to 87% and the IC50 was under 50 nM.

Turning to `COc1cccc(F)c1-c1cc2c(cn1)NC(=O)/C2=C(/C)Nc1cnn(C)c1` [Example 16, (Z)-5-(2-Fluoro-6-methoxyphenyl)-3-(1-((1-methyl-1H-pyrazol-4-yl)amino)ethylidene)-1H-pyrrolo[2,3-c]pyridin-2(3H)-one], the inhibition at 1 µM turned out to be 85.3%, the inhibition at 10 µM worked out at 88.9% and the IC50 was under 50 nM.

With `CC/C(Nc1cnn(C)c1)=C1/C(=O)Nc2ccc(-c3c(F)cccc3OC)cc21` [Example 17, (Z)-5-(2-Fluoro-6-methoxyphenyl)-3-(1-((1-methyl-1H-pyrazol-4-yl)amino)propylidene)indolin-2-one], the inhibition at 1 µM came out at 85.7%, the inhibition at 10 µM came to 83.3% and the IC50 is under 50 nM.

For `COc1cccc(F)c1-c1ccc2c(c1)/C(=C(\C)Nc1ccn(C)n1)C(=O)N2` [Example 18, (Z)-5-(2-Fluoro-6-methoxyphenyl)-3-(1-((1-methyl-1H-pyrazol-3-yl)amino)ethylidene)indolin-2-one], the inhibition at 1 µM came to 89.8%, the inhibition at 10 µM worked out at 85.4% and the IC50 is under 50 nM.

`COc1cccc(F)c1-c1cc2c(cc1Cl)NC(=O)/C2=C(/C)Nc1cnn(C)c1` [Example 20]: the inhibition at 1 µM worked out at 85.2%, the inhibition at 10 µM stood at 80.1% and the IC50 was under 50 nM.

As to `COc1cccc(F)c1-c1cc2c(cc1C)NC(=O)/C2=C(/C)Nc1cnn(C)c1` [Example 21, (Z)-5-(2-Fluoro-6-methoxyphenyl)-6-methyl-3-(1-((1-methyl-1H-pyrazol-4-yl)amino)ethylidene)indolin-2-one], the inhibition at 1 µM is 83.1%, the inhibition at 10 µM was 80% and the IC50 is under 50 nM.

In the case of `CCOc1cccc(F)c1-c1cc2c(cn1)NC(=O)/C2=C(/C)Nc1cnn(CC)c1` [Example 22, (Z)-5-(2-Ethoxy-6-fluorophenyl)-3-(1-((1-ethyl-1H-pyrazol-4-yl)amino)ethylidene)-1H-pyrrolo[2,3-c]pyridin-2(3H)-one], the inhibition at 1 µM stood at 86.6%, the inhibition at 10 µM was 90.5% and the IC50 was under 50 nM.

With `C/C(Nc1cnn(C)c1)=C1/C(=O)Nc2cnc(-c3cnccc3C)cc21` [Example 23, (Z)-3-(1-((1-methyl-1H-pyrazol-4-yl)amino)ethylidene)-5-(4-methylpyridin-3-yl)-1H-pyrrolo[2,3-c]pyridin-2(3H)-one], the inhibition at 1 µM stood at 84.6%, the inhibition at 10 µM turned out to be 87% and the IC50 is under 50 nM.

In the case of `C/C(Nc1cnn(C)c1)=C1/C(=O)Nc2cnc(-c3ccc(F)cc3F)cc21` [Example 24, (Z)-5-(2,4-Difluorophenyl)-3-(1-((1-methyl-1H-pyrazol-4-yl)amino)ethylidene)-1H-pyrrolo[2,3-c]pyridin-2(3H)-one], the inhibition at 1 µM stood at 70.9%, the inhibition at 10 µM was 79.7% and the IC50 was in the range of 100 to 500 nM.
